Reference: publication PMC3608651, “A Broad Profile of Co-Dominant Epitopes Shapes the Peripheral Mycobacterium tuberculosis Specific CD8+ T-Cell Immune Response in South African Patients with Active Tuberculosis” (PLoS ONE, 2013)
Read-outs that look alike come from different tables or passages of the source. Marks after values point to notes of the source that are not given here.

How the values were obtained:
HLA-B*58:01 [1] = biological target: T1, HLA-B*58:01 (Homo sapiens, UniProt P01889, A329T/C349S/D201E/D98Y/E176V/E187L/E204Q/E69T/G107R/I218V/I90N/K202T/L105A/L119I/N104I/N87E/Q89R/Q94S/R106L/R155S/R180L/R86G/S101N/S121R/S35A/S48A/T118I/V127L/V306I/V36M/Y140S/Y91M); assay type: binding; details: percent relative the binding of positive control peptide […]; duplicated experiments; positive binder >40%
HLA-B*58:01 [2] = biological target: T1, HLA-B*58:01; assay type: binding
HLA-B*58:01 [3] = biological target: T1, HLA-B*58:01; assay type: binding; details: time points 0-8 h
HLA-A*02:01 [4] = biological target: T2, HLA-A*02:01 (Homo sapiens, UniProt P04439, D140Y/D185E/D98H/E176V/E277Q/G131W/G231S/I119V/I121R/I166T/I218V/L300P/L318F/N151K/N90K/P208A/P217A/Q86G/Q94H/R138H/R169H/T345S); details: percent relative the binding of a positive control peptide; […]; cited from earlier work
HLA-A*02:01 [5] = biological target: T2, HLA-A*02:01; details: cited from earlier work
HLA-A*02:01 [6] = biological target: T2, HLA-A*02:01; assay type: binding
HLA-A*24:02 [7] = biological target: T3, HLA-A*24:02 (Homo sapiens, UniProt P04439, D101N/D140Y/D185E/E176V/E190D/F33S/G103R/G107R/I119L/I121M/I306V/K335N/L105A/L180Q/L300P/N151K/N90K/Q86E/Q94H/R106L/R138H/R89G/T104I/T345S/V100E/W191G/Y123F); assay type: binding
HLA-A*30:01 = HLA-A*30:01 (Homo sapiens, UniProt P04439, D140H/D185E/E176W/F33S/G80R/H175R/K168Q/R138E/R41S); assay type: binding; details: percent relative the binding of positive control peptide […]; duplicated experiments; positive binder >40%
HLA-A*30:02 [8] = biological target: T4, HLA-A*30:02 (Homo sapiens, UniProt P04439, D101N/D140H/D185E/E176R/F33S/G80R/H175R/K168Q/Q94H/R138E/R41S/V100E); assay type: binding; details: percent relative the binding of positive control peptide […]; duplicated experiments; positive binder >40%
HLA-A*30:02 [9] = biological target: T4, HLA-A*30:02; assay type: binding
HLA-A*30:02 [10] = biological target: T4, HLA-A*30:02; assay type: binding; details: time points 0-8 h
HLA-A*68:01 [11] = biological target: T5, HLA-A*68:01 (Homo sapiens, UniProt P04439, A269V/D185E/E176V/E277Q/E87N/F33Y/G231S/I121M/I166T/I218V/L180W/L300P/L318F/N151K/P208A/P217A/Q86R/R169H/T345S); assay type: binding; details: percent relative the binding of positive control peptide […]; duplicated experiments; positive binder >40%
HLA-B*07:02 = HLA-B*07:02 (Homo sapiens, UniProt P01889); assay type: binding
HLA-C*07:01 [12] = biological target: T6, HLA-C*07:01 (Homo sapiens, UniProt P10321, K90N/S123Y); assay type: binding; details: percent relative the binding of positive control peptide […]; duplicated experiments; positive binder >40%
HLA-C*07:01 [13] = biological target: T6, HLA-C*07:01; experiment: affinity assay (ED50); assay type: binding
HLA-C*07:01 [14] = biological target: T6, HLA-C*07:01; experiment: off-rate assay (t1/2); assay type: binding; details: time points 0-8 h
HLA-A*68:01 [15] = biological target: T5, HLA-A*68:01; assay type: binding
HLA-A*68:01 [16] = biological target: T5, HLA-A*68:01; assay type: binding; details: time points 0-8 h
HLA-A*02:01 [17] = biological target: T2, HLA-A*02:01; assay type: binding; remark: listed apart in the source
HLA-A*02:01 [18] = biological target: T2, HLA-A*02:01; assay type: binding; remark: listed apart in the source
HLA-A*24:02 [19] = biological target: T3, HLA-A*24:02; assay type: binding; remark: listed apart in the source
HLA-A*24:02 [20] = biological target: T3, HLA-A*24:02; assay type: binding; remark: listed apart in the source
HLA-A*30:02 [21] = biological target: T4, HLA-A*30:02; details: percent relative the binding of a positive control peptide; wild-type epitopes marked **; cited from earlier work
HLA-A*30:02 [22] = biological target: T4, HLA-A*30:02; details: wild-type epitopes marked **; cited from earlier work
HLA-A*30:02 [23] = biological target: T4, HLA-A*30:02; details: wild-type epitopes marked **; cited from earlier work; remark: listed apart in the source
[24] = percent relative the binding of positive control peptide […], plate-bound monomer 0.5 µg/ml, duplicated experiments, positive binder >40%
[25] = percent relative the binding of positive control peptide […], duplicated experiments, positive binder >40%

Substance: QSLGAEIAV [Rv0288_26–34wt]
- Bind B*58:01 (HLA-B*58:01 [1]): 30%
- Aff B*58:01 (ED50) (HLA-B*58:01 [2]): 0.0002 M
- O-rate B*58:01 (t1/2) (HLA-B*58:01 [3]): 0.1 h
- Bind A*02:01 (HLA-A*02:01 [4]): 48* percent
- Aff A*02:01 (ED50) (HLA-A*02:01 [5]): 2000 nM

Substance: I NT P AF E WY
- Bind A*02:01 (HLA-A*02:01 [6]; [24]): 0%
- Bind A*24:02 (HLA-A*24:02 [7]; [25]): 20%
- Bind A*30:01 (HLA-A*30:01): 10%
- Bind A*30:02 (HLA-A*30:02 [8]): 132%
- Aff A*30:02 (ED50) (HLA-A*30:02 [9]): 7E -07 M
- O-rate A*30:02 (t1/2) (HLA-A*30:02 [10]): 1.9 h
- Bind A*68:01 (HLA-A*68:01 [11]): 9%
- Bind B*07:02 (HLA-B*07:02; [25]): 2%
- Bind B*58:01 (HLA-B*58:01 [1]): 54%
- Aff B*58:01 (ED50) (HLA-B*58:01 [2]): 5e-07 M
- O-rate B*58:01 (t1/2) (HLA-B*58:01 [3]): 0.5 h
- Bind C*07:01 (HLA-C*07:01 [12]): 41%
- Aff C*07:01 (ED50) (HLA-C*07:01 [13]): 6E -07 M
- O-rate C*07:01 (t1/2) (HLA-C*07:01 [14]): 1 h

Substance: FVRSSNLKF
- Bind A*02:01 (HLA-A*02:01 [6]; [24]): 15%
- Bind A*24:02 (HLA-A*24:02 [7]; [25]): 81%
- Bind A*30:01 (HLA-A*30:01): 0%
- Bind A*30:02 (HLA-A*30:02 [8]): 94%
- Aff A*30:02 (ED50) (HLA-A*30:02 [9]): 8E -06 M
- O-rate A*30:02 (t1/2) (HLA-A*30:02 [10]): 1.9 h
- Bind A*68:01 (HLA-A*68:01 [11]): 45%
- Aff A*68:01 (ED50) (HLA-A*68:01 [15]): 8e-08 M
- O-rate A*68:01 (t1/2) (HLA-A*68:01 [16]): 0.1 h
- Bind B*07:02 (HLA-B*07:02; [25]): 114%
- Bind B*58:01 (HLA-B*58:01 [1]): 12%
- Bind C*07:01 (HLA-C*07:01 [12]): 76%
- Aff C*07:01 (ED50) (HLA-C*07:01 [13]): 2E -08 M
- O-rate C*07:01 (t1/2) (HLA-C*07:01 [14]): 1.4 h

Substance: MAGSSAMIL
- Bind A*02:01 (HLA-A*02:01 [6]; [24]): 54%
- Aff A*02:01 (ED50) (HLA-A*02:01 [17]; […], peptide quantity for 50% binding saturation): 700 nM
- O-rate A*02:01 (t1/2) (HLA-A*02:01 [18]; time points 0-8 h, time when 50% of peptide has dissociated): 0.4 h
- Bind A*24:02 (HLA-A*24:02 [7]; [25]): 26%
- Bind A*30:01 (HLA-A*30:01): 0%
- Bind A*30:02 (HLA-A*30:02 [8]): 13%
- Bind A*68:01 (HLA-A*68:01 [11]): 0%
- Bind B*07:02 (HLA-B*07:02; [25]): 57%
- Bind B*58:01 (HLA-B*58:01 [1]): 55%
- Aff B*58:01 (ED50) (HLA-B*58:01 [2]): 9e-09 M
- O-rate B*58:01 (t1/2) (HLA-B*58:01 [3]): 0.8 h
- Bind C*07:01 (HLA-C*07:01 [12]): 94%
- Aff C*07:01 (ED50) (HLA-C*07:01 [13]): 1E -08 M
- O-rate C*07:01 (t1/2) (HLA-C*07:01 [14]): 0.5 h

Substance: YQSGLSIVM
- Bind A*02:01 (HLA-A*02:01 [6]): 142
- Aff A*02:01 (ED50) (HLA-A*02:01 [17]): 50 nM
- O-rate A*02:01 (t1/2) (HLA-A*02:01 [18]): 3.1 h
- Bind A*24:02 (HLA-A*24:02 [7]): 59
- Aff A*24:02 (ED50) (HLA-A*24:02 [19]): 500 nM
- O-rate A*24:02 (t1/2) (HLA-A*24:02 [20]): 1.5 h
- Bind A*30:01 (HLA-A*30:01): 27%
- Bind A*30:02 (HLA-A*30:02 [8]): 123%
- Aff A*30:02 (ED50) (HLA-A*30:02 [9]): 8E -07 M
- O-rate A*30:02 (t1/2) (HLA-A*30:02 [10]): 0.4 h
- Bind A*68:01 (HLA-A*68:01 [11]): 7%
- Bind B*07:02 (HLA-B*07:02): 2
- Bind B*58:01 (HLA-B*58:01 [1]): 0%
- Bind C*07:01 (HLA-C*07:01 [12]): 68%
- Aff C*07:01 (ED50) (HLA-C*07:01 [13]): 7E -09 M
- O-rate C*07:01 (t1/2) (HLA-C*07:01 [14]): 0.3 h

Substance: NTPAFEWYY
- Bind A*02:01 (HLA-A*02:01 [6]; [24]): 0%
- Bind A*24:02 (HLA-A*24:02 [7]; [25]): 0%
- Bind A*30:01 (HLA-A*30:01): 6%
- Bind A*30:02 (HLA-A*30:02 [8]): 99%
- Aff A*30:02 (ED50) (HLA-A*30:02 [9]): 2e-08 M
- O-rate A*30:02 (t1/2) (HLA-A*30:02 [10]): 1.5 h
- Bind A*68:01 (HLA-A*68:01 [11]): 69%
- Aff A*68:01 (ED50) (HLA-A*68:01 [15]): 1E -07 M
- O-rate A*68:01 (t1/2) (HLA-A*68:01 [16]): 0.2 h
- Bind B*07:02 (HLA-B*07:02; [25]): 0%
- Bind B*58:01 (HLA-B*58:01 [1]): 36%
- Bind C*07:01 (HLA-C*07:01 [12]): 48%
- Aff C*07:01 (ED50) (HLA-C*07:01 [13]): 8e-09 M
- O-rate C*07:01 (t1/2) (HLA-C*07:01 [14]): 0.9 h

Substance: GHAGDMAGY [Rv0288_13–21wt]
- Bind A*30:02 (HLA-A*30:02 [21]): 71** percent
- Aff A*30:02 (ED50) (HLA-A*30:02 [22]): 40 nM
- O-rate A*30:02 (t1/2) (HLA-A*30:02 [23]): 1.3 h

Substance: SSAMILAAY
- Bind A*02:01 (HLA-A*02:01 [6]; [24]): 0%
- Bind A*24:02 (HLA-A*24:02 [7]; [25]): 36%
- Bind A*30:01 (HLA-A*30:01): 0%
- Bind A*30:02 (HLA-A*30:02 [8]): 118%
- Aff A*30:02 (ED50) (HLA-A*30:02 [9]): 7E -09 M
- O-rate A*30:02 (t1/2) (HLA-A*30:02 [10]): 3.6 h
- Bind A*68:01 (HLA-A*68:01 [11]): 101%
- Aff A*68:01 (ED50) (HLA-A*68:01 [15]): 1E -07 M
- O-rate A*68:01 (t1/2) (HLA-A*68:01 [16]): 1.8 h
- Bind B*07:02 (HLA-B*07:02; [25]): 4%
- Bind B*58:01 (HLA-B*58:01 [1]): 90%
- Aff B*58:01 (ED50) (HLA-B*58:01 [2]): 2E -08 M
- O-rate B*58:01 (t1/2) (HLA-B*58:01 [3]): 0.8 h
- Bind C*07:01 (HLA-C*07:01 [12]): 41%
- Aff C*07:01 (ED50) (HLA-C*07:01 [13]): 4E -07 M
- O-rate C*07:01 (t1/2) (HLA-C*07:01 [14]): 1.6 h

Substance: AYHAMSSTH [Rv0288_68–76wt]
- Bind A*30:02 (HLA-A*30:02 [21]): 70** percent
- Aff A*30:02 (ED50) (HLA-A*30:02 [22]): 300 nM
- O-rate A*30:02 (t1/2) (HLA-A*30:02 [23]): 1.2 h
